{
  "source": "paper PMC12524408",
  "about": "(International Journal of Molecular Sciences, 2025)",
  "key": {"[1]": {"test": "PEG-AM plasma concentration, Study No. P170454", "assay_type": "in vivo", "conditions": "1 nmol/kg single i.v.; mouse; fluorescence immunoassay", "source_text": "Figure 4 Dose-dependent effects of intravenous PEG-AM administration in DSS-induced colitis (Study No. P170454). (a) Overview of the experimental design. Groups: vehicle (n = 10), PEG-AM 1 nmol/kg (n = 10), 5 nmol/kg (n = 10), 25 nmol/kg (n = 10). (b) Total inflammation scores on day 8. (c) Colon length. (d) Colon weight-to-length ratio. (e) PEG-AM plasma concentrations on day 8.\nColitis was induced with 3% (w/v) DSS (MW 5000) in drinking water for seven days. PEG-AM (1.0, 5.0, and 25 nmol/kg) or saline (control) was administered intravenously one day before DSS treatment. Each group included 10 mice. Stool consistency, bleeding, and body weight were evaluated on days −1, 0, 3, 5, and 7. A total inflammation score was calculated. Mice were anesthetized with 3% isoflurane (Zoetis Japan, Tokyo, Japan), and the colon was excised on day 7."}, "[2]": {"system": "DSS-induced colitis", "test": "Dose-dependent study of intravenous PEG-AM in DSS-induced colitis (Study No. P170454)", "assay_type": "in vivo, mouse", "conditions": "1, 5, 25 nmol/kg single i.v. one day before 3% DSS (MW 5000); vs vehicle; n = 10 per group", "experimental": "We examined the effects of intravenous administration of PEG-AM on DSS-induced colitis, as per the experimental design in Figure 4a. PEG-AM was administered one day before DSS exposure to evaluate its prophylactic effect against colitis onset and progression.  Figure 4 Dose-dependent effects of intravenous PEG-AM administration in DSS-induced colitis (Study No. P170454). (a) Overview of the experimental design. Groups: vehicle (n = 10), PEG-AM 1 nmol/kg (n = 10), 5 nmol/kg (n = 10), 25 nmol/kg (n = 10). (b) Total inflammation scores on day 8. (c) Colon length. (d) Colon weight-to-length ratio. (e) PEG-AM plasma concentrations on day 8. To evaluate the pharmacological effects of PEG-AM, three animal studies were conducted by the LSI Medience Corporation following the Animal Welfare Act and institutional approval. Seven-week-old male C57BL/6J JCL mice (CLEA Japan, Inc., Tokyo, Japan) were used in all studies and were housed under pathogen-free conditions. Colitis was induced with 3% (w/v) DSS (MW 5000) in drinking water for seven days. PEG-AM (1.0, 5.0, and 25 nmol/kg) or saline (control) was administered intravenously one day before DSS treatment. Each group included 10 mice. Stool consistency, bleeding, and body weight were evaluated on days −1, 0, 3, 5, and 7. A total inflammation score was calculated. Mice were anesthetized with 3% isoflurane (Zoetis Japan, Tokyo, Japan), and the colon was excised on day 7."}},
  "data": [
    {"substance": "40 kDa PEGylated adrenomedullin [PEG-AM]", "values": [
      {"measurement": "PEG-AM plasma concentration on day 8", "setting": "[1]", "value": "undetectable"},
      {"measurement": "Colon length", "setting": "[2]", "value": "comparable across all groups"},
      {"measurement": "Colon weight per unit length", "setting": "[2]", "value": "no significant differences"},
      {"measurement": "Total inflammation score on day 8", "setting": "[2]", "value": "no statistically significant differences"}
    ]}
  ]
}
